How the values were obtained:
[1] = molecular target: T1, Kinesin-like protein KIF18A (Homo sapiens) (UniProt Q8NI77); assay: Inhibition of Kif18A (unknown origin) assessed as reduction in Alexa-594 labelled microtubule gliding at 30 uM measured every 2 secs for 20 secs by epifluorescence microscopic analysis relative to control
T1 sequence (whole entry): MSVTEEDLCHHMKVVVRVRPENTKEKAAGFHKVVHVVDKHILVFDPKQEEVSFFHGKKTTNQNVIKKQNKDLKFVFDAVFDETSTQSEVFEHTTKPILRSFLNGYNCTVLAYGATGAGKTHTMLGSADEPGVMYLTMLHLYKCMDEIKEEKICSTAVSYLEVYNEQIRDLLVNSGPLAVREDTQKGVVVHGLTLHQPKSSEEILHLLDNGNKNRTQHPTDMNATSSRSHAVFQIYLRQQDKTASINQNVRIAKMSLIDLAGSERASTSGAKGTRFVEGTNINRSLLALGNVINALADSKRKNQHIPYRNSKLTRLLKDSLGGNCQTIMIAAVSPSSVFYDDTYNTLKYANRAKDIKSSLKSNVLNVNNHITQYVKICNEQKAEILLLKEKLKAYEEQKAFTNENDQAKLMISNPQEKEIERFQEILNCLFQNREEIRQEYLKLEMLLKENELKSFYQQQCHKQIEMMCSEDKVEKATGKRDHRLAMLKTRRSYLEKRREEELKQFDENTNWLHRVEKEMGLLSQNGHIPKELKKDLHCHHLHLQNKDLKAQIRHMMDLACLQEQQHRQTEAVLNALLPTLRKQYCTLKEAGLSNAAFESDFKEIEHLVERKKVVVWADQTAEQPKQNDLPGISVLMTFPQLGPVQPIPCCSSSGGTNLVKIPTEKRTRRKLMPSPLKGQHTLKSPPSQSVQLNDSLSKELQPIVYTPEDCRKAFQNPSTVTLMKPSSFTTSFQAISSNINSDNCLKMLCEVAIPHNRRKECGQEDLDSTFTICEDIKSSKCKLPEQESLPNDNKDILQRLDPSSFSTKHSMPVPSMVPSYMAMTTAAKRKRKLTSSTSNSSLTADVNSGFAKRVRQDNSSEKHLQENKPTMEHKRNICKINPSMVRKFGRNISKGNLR

[2] = molecular target: T2, Kinesin-like protein KIF15 (Homo sapiens) (UniProt Q9NS87); assay: Inhibition of recombinant His6-tagged Kif15 (N700 residues) (unknown origin) expressed in HeLa cells assessed as reduction in Alexa-594 labelled microtubule gliding at 30 uM measured every 2 secs for 20 secs by epifluorescence microscopic analysis relative to control; type: cell-based
T2 sequence (whole entry): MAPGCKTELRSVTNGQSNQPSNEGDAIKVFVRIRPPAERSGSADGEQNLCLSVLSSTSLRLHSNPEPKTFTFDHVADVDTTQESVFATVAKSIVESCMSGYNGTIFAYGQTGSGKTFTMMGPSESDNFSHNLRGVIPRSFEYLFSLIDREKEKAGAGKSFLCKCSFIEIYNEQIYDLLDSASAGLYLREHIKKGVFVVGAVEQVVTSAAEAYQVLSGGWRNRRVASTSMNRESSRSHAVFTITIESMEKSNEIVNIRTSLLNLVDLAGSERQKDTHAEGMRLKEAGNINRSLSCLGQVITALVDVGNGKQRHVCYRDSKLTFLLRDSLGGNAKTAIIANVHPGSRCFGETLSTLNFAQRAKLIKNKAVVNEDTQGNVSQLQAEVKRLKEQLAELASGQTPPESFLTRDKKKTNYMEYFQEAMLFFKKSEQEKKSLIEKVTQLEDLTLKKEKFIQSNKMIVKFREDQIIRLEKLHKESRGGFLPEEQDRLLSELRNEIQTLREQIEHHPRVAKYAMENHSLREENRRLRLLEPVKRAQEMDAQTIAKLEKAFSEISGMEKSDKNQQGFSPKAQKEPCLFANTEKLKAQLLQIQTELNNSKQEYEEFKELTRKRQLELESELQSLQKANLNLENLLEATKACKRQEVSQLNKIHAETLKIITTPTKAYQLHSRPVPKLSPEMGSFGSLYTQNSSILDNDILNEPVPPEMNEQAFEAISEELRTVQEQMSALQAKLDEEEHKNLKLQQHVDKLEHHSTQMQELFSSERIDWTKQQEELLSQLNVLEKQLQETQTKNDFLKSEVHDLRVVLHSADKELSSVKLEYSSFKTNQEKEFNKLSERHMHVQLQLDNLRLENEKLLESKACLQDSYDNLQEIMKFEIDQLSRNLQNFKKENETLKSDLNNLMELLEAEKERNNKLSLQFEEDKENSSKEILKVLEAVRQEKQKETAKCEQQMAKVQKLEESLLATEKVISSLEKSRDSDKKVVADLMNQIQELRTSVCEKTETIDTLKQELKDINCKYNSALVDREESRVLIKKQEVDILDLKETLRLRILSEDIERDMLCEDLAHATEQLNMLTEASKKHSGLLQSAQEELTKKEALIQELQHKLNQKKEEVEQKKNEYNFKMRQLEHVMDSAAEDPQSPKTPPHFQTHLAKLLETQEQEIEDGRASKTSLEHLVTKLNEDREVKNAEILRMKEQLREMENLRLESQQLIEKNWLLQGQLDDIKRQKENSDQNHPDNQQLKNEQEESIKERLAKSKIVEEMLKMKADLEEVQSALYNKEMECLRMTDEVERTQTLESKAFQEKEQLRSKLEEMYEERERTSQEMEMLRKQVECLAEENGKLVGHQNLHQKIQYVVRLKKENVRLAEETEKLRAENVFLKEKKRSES

With `O=C1Nc2ccc(C(=O)c3ccco3)cc2/C1=C/c1cc(Cl)c(O)c(Cl)c1` the inhibition [1] was 4.9% and the inhibition [2] was 98.9%.

Source: ChEMBL document CHEMBL4371054, “Dual inhibition of Kif15 by oxindole and quinazolinedione chemical probes” (Bioorg Med Chem Lett, 2019)
